Assay results from publication PMC4532424, “The Novel Cyclophilin Inhibitor CPI-431-32 Concurrently Blocks HCV and HIV-1 Infections via a Similar Mechanism of Action” (PLoS ONE, 2015).
Where two headings read alike, the source gives them in different places. Non-standard residues stand in square brackets, D forms with d. Residues, ends and D or L forms follow the SMILES beside them. NMeThr(4R-Me,4-(CH2)6NHAc) = CN[C@H](C(=O)O)[C@H](O)[C@H](C)CCCCCCNC(C)=O; NMeL = CN[C@@H](CC(C)C)C(=O)O; NMeV = CN[C@H](C(=O)O)C(C)C; dNMeA = CN[C@H](C)C(=O)O; Abu = CC[C@H](N)C(=O)O

Legend:
[1] = system: HCV wild-type (Con1b); experiment: HCV Luc-Con1 replicon replication in Huh7.5 cells, luciferase; type: cell-based; conditions: 72 h, read-out: EC50, inhibition of HCV replication
Procedure: (§1) The GT1b subgenomic firefly luciferase reporter replicon pFK-I389/NS3–3 was provided by R. Bartenschlager. The GT1B subgenomic NS3 (R155Q/A156T), NS5A (L31V, D320E/Y321N, S328P and P313A/P318A), and NS5B (S282T) mutants were created as previously. Half-maximal effective concentration (EC50) measurements were conducted as previously.
(§2) We took advantage of the DAA-resistant HCV genotype 1b Con1 replicons that we previously generated: the NS3 inhibitor-resistant R155Q/A156T NS3, the NS5A inhibitor-resistant L31V NS5A replicon, and the NS5B inhibitor-resistant S282T NS5B replicons. […] EC50 HCV data are expressed in nM whereas EC50 HIV-1 data are expressed in μM.

[2] = system: HCV CsA-sensitive (P313A/P318A); experiment: as above; type: cell-based; conditions: read-out: EC50, inhibition of HCV replication
Procedure: as §1, §2

[3] = system: HCV NS5A-resistant (L31V); experiment: as above; type: cell-based; conditions: read-out: EC50, inhibition of HCV replication
Procedure: as §1, §2

[4] = system: HCV NS3-resistant (R155Q/A156T); experiment: as above; type: cell-based; conditions: read-out: EC50, inhibition of HCV replication
Procedure: as §1, §2

[5] = system: HCV CsA-sensitive (S328P); experiment: as above; type: cell-based; conditions: read-out: EC50, inhibition of HCV replication
Procedure: as §1, §2

[6] = system: HCV NS5B-resistant (S282T); experiment: as above; type: cell-based; conditions: read-out: EC50, inhibition of HCV replication
Procedure: as §1, §2

[7] = system: HCV ALV-resistant (D320E/Y321N); experiment: as above; type: cell-based; conditions: read-out: EC50, inhibition of HCV replication
Procedure: as §1, §2

[8] = system: HCV-mediated double-membrane vesicle (DMV) formation; experiment: HCV NS3-NS5B-mediated double membrane vesicle (DMV) formation in T7/Huh7.5.1 cells, EM; type: cell-based, human; conditions: for DMV number: T7/Huh7.5.1 cells, pTMI (NS3-NS5B), DMSO control 365 +/- 18
Procedure: HCV-mediated DMV formation studies were conducted as we described recently using the pTM1(NS3-NS5B) plasmid and the T7/Huh7.5.1 cells developed by the Tai lab.
We then investigated the mechanism by which CPI-431-32 inhibits HCV replication. HCV is well known for its ability to reshape intracellular membranes to optimize RNA synthesis, especially by re-organizing the ER membrane close to the nucleus—the so-called membranous web (MW). […] We and others recently obtained evidence that the formation of DMVs highly depends on both CypA and HCV NS5A [60, 71, 72]. We thus asked whether CPI-431-32 inhibits HCV replication by preventing the creation of DMVs. To test this hypothesis, we took advantage of a T7 promoter driven JFH-1 NS3-NS5B DNA plasmid (pTM1(NS3-5B)) developed by the Tai lab that permits expression of NS3, NS4A, NS4B, NS5A and NS5B upon HCV polyprotein processing as well as viral RNA synthesis when transfected in T7 RNA polymerase expressing Huh7.5.1 cells (T7/Huh7.5.1 cells). Importantly, the expression of the HCV NS3-NS5B polyprotein suffices to create both the MV and DMVs independently of viral replication. All controls were presented previously. As we and others recently reported, NS3-5B expression mediates the formation of a significant number of DMVs in DMSO-treated cells (Fig 5).
Fig 5 CPI-431-32 blocks HCV-mediated double-membrane vesicle (DMV) formation. T7 polymerase expressing Huh7.5.1 cells were transfected in triplicates with JFH-1 NS3-NS5B plasmid in the presence of DMSO or increasing concentrations of CPI-431-32 and analyzed by EM as well as by Image J and ITEM software for DMVs quantification as described previously. Illustrating EM images of DMVs are presented with an amplification of 25,000x. Data are representative of two independent experiments. TEXT PRINTED IN THE PICTURE: DMSO: DMV number: 0 (Cells: T7/Huh7.5.1; HCV Plasmids: –); DMV number: 365 +/- 18 (Cells: T7/Huh7.5.1; HCV Plasmids: pTMI (NS3-NS5B)) | CPI-431-32: DMV number: 1 +/- 0 (2 μM; Cells: T7/Huh7.5.1; HCV Plasmids: pTMI (NS3-NS5B)); DMV number: 8 +/- 2 (0.5 μM; Cells: T7/Huh7.5.1; HCV Plasmids: pTMI (NS3-NS5B)); DMV number: 61 +/- 6 (0.125 μM; Cells: T7/Huh7.5.1; HCV Plasmids: pTMI (NS3-NS5B)); DMV number: 312 +/- 45 (0.03125 μM; Cells: T7/Huh7.5.1; HCV Plasmids: pTMI (NS3-NS5B))

[9] = system: HIV-1 JR-CSF; experiment: Established HIV-1 infection of CD4+ T-lymphocytes, single versus daily drug addition, p24 ELISA; type: cell-based; conditions: 2 μM three days post-infection then daily 0.5 μM; after fifteen days
Procedure: CD4+ T-lymphocytes (A) and Huh7.5.1 cells (B) (0.5 x 10^6 cells) (triplicates) were exposed to HIV-1 JR-CSF and HCV JFH-1. Drugs (2 μM) were added 3 h pre-viral exposure (top panels) or 3 days post-viral exposure (bottom panels). Viral replications were monitored by HIV-1 p24 and HCV core ELISAs. C. CD4+ T-lymphocytes (0.5 x 10^6 cells) (triplicates) were exposed to HIV-1 JR-CSF. Drugs were initially added 3 days post-viral exposure (2 μM) and then daily (0.5 μM). Viral replications were monitored by HIV-1 p24 and HCV core ELISAs. […] D. Model for the HIV-1/HCV co-culture system.

[10] = Hepatitis C virus, Huh7.5, 72 h

Row | Structure (SMILES) | EC50 ([1]; Hepatitis C virus) [nM] | EC50 [2, 10] [nM] | EC50 [3, 10] [nM] | EC50 [4, 10] [nM] | EC50 [5, 10] [nM] | EC50 [6, 10] [nM] | EC50 [7, 10] [nM] | EC50 [1] [nM] | EC50 ([2]; HCV CsA-sensitive (P313A/P318A) replicon, Huh7.5 cells, 72 h) [nM] | EC50 ([3]; HCV NS5A-resistant (L31V) replicon, Huh7.5 cells, 72 h) [nM] | EC50 ([4]; HCV NS3-resistant (R155Q/A156T) replicon, Huh7.5 cells, 72 h) [nM] | EC50 ([5]; HCV CsA-sensitive (S328P) replicon, Huh7.5 cells, 72 h) [nM] | EC50 ([6]; HCV NS5B-resistant (S282T) replicon, Huh7.5 cells, 72 h) [nM] | EC50 ([7]; HCV ALV-resistant (D320E/Y321N) replicon, Huh7.5 cells, 72 h) [nM] | DMV number ([8]; 0.03125 μM) | DMV number ([8]; 0.125 μM) | DMV number ([8]; 0.5 μM) | DMV number ([8]; 2 μM) | NS3-NS5B-mediated formation of DMVs (in words) ([8]; compared to DMSO control) | Effect on HIV-1 replication (in words) [9]
1 | C/C=C/C[C@@H](C)[C@@H](O)[C@H]1C(=O)N[C@@H](CC)C(=O)N(C)[C@H](C)C(=O)N(CC)[C@@H](C(C)C)C(=O)N[C@@H](C(C)C)C(=O)N(C)[C@@H](CC(C)C)C(=O)N[C@@H](C)C(=O)N[C@H](C)C(=O)N(C)[C@@H](CC(C)C)C(=O)N(C)[C@@H](CC(C)C)C(=O)N(C)[C@@H](C(C)C)C(=O)N1C [ALV, Alisporivir] | 16.6 ± 0.8 | 5.2 ± 0.6 | 16.5 ± 2.1 | 17.7 ± 1.9 | 5.6 ± 1.1 | 15.6 ± 2.4 | 44.2 ± 5.8 | – | – | – | – | – | – | – | – | – | – | – | – | –
2 | CC[C@@H]1NC(=O)[C@H]([C@H](O)[C@H](C)CCCCCCNC(C)=O)N(C)C(=O)[C@H](C(C)C)N(C)C(=O)[C@H](CC(C)C)N(C)C(=O)[C@H](CC(C)C)N(C)C(=O)[C@@H](C)NC(=O)[C@H](C)NC(=O)[C@H](CC(C)C)N(C)C(=O)[C@H](C(C)C)NC(=O)[C@H](CC(C)C)N(C)C(=O)[C@@H](C)N(C)C1=O [CPI-431-32] (cyclo(A[dA][NMeL][NMeL][NMeV][NMeThr(4R-Me,4-(CH2)6NHAc)][Abu][dNMeA][NMeL]V[NMeL])) | – | – | – | – | – | – | – | 9.3 ± 0.4 | 4.7 ± 0.2 | 8.9 ± 0.4 | 11.3 ± 0.2 | 5.1 ± 0.3 | 8.3 ± 0.4 | 26.5 ± 3.2 | 312 +/- 45 | 61 +/- 6 | 8 +/- 2 | 1 +/- 0 | profoundly decreased | almost totally repressed HIV-1 replication
